Assays:
Assay type in all cases: physicochemical
[1] = Fluorescence emission spectra of molecular rotors in glycerin and methanol; details: for Maximum Emission Wavelength: 1×10^−5 M in glycerin and methanol, excited at maximum excitation wavelength of each dye; for Fluorescence Intensity Ratios in Glycerol/Methanol: 1×10^−5 M, glycerol vs methanol solution
Experimental: The fluorescent dyes (molecular rotors) prepared in Examples 1-68 were separately dissolved in dimethyl sulfoxide to prepare respectively a mother liquor having a concentration of 1×10^−2 M, and each of the mother liquors was added individually to glycerin and methanol, and mixed uniformly, thereby solutions of a final concentration of 1×10^−5 M were prepared individually. According to the different fluorescent dyes, the fluorescence emission spectra of the fluorescent dyes were detected with the maximum excitation wavelengths of respective fluorescent dyes successively under the same conditions.

[2] = Fluorescence emission in ethylene glycol-glycerol mixed solutions of different viscosities; details: 1×10^−5 M, 16.4-946.0 cp; for Emission wavelength: excited at 480 nm; for Viscosity response of fluorescence intensity: log intensity vs log viscosity linear
Experimental: Molecular Rotors 1, 2, 3, 22, 57, and 63 were added to ethylene glycol-glycerol mixed solutions having viscosities of 16.4 cp, 29.8 cp, 64.5 cp, 143.5 cp, 377.0 cp, and 946.0 cp to prepare a solution with a final concentration of 1×10^−5 M. The solution was excited at 480 nm. The fluorescence emission spectra at different viscosities were shown in FIGS. 1, 4, 7, 10, 13, and 16. Emission wavelengths of the molecular rotors were 555 nm, 590 nm, 610 nm, 570 nm, 559 nm, and 675 nm, respectively.

[3] = Fluorescence emission intensity in dichloromethane and methanol (polarity response); details: 1×10^−5 M; dichloromethane vs methanol; 25° C.
Experimental: Molecular Rotors 1, 2, 3, 22, 57, 63 were added to dichloromethane and methanol respectively to prepare a solution with a final concentration of 1×10^−5 M. Then, the solution was excited individually by excitation wavelengths of 480 nm, 480 nm and 500 nm at 25° C. to detect their fluorescence emission intensities in two different polar solvents.

Maximum Emission Wavelength [1]	Fluorescence Intensity Ratios in Glycerol/Methanol [1]	Emission wavelength [2]	Viscosity response of fluorescence intensity [2]	Polarity response of fluorescence intensity [3]	Compound
610 nm	1455	610 nm	sensitive to viscosity	insensitive to the polarity change	CN(CCO)c1cc2sc(/C=C(\C#N)c3nc4ccccc4s3)cc2s1 [Molecular Rotor 3, 2-[2-cyano-2-(1,3-benzothiazol-2-yl)-vinyl]-5-(N-methyl-N-hydroxyethyl)-thieno[3,2,b]thiophene]
570 nm	989	570 nm	sensitive to viscosity	insensitive to the polarity change	CN(C)c1ccc2cc(/C=C(\C#N)C(=O)OC(C)(C)C)sc2c1 [Molecular Rotor 22]
675 nm	516	675 nm	sensitive to viscosity	insensitive to the polarity change	CN(C)c1cc2c(s1)c1sc(/C=C(\C#N)C(=O)OC(C)(C)C)cc1n2C [Molecular Rotor 63]

Compound	Maximum Emission Wavelength [1]	Fluorescence Intensity Ratios in Glycerol/Methanol [1]	Emission wavelength [2]	Viscosity response of fluorescence intensity [2]	Polarity response of fluorescence intensity [3]
CN(CCO)c1cc2c(s1)-c1sc(/C=C(\C#N)C(=O)OC(C)(C)C)cc1[Si]2(C)C [Molecular Rotor 57]	659 nm	884	559 nm	sensitive to viscosity	insensitive to the polarity change

From patent US11365203B2, “Fluorescent dye and preparation method and use thereof” (Fluorescence Diagnosis (shanghai) Biotech Company Ltd., priority 2016, dated 2022)
